Assay results as given in patent US8242118B2, “Arylsulfonamide derivatives for use as CCR3 antagonists in the treatment of inflammatory and immunological disorders” (Axikin Pharmaceuticals Inc., priority 2001, dated 2012).
Where a name gives a salt, the structure may show the parent alone.

| SMILES | melting point |
| --- | --- |
| Cc1cc(C)cc(Sc2ccc([N+](=O)[O-])cc2S(=O)(=O)N2CCNCC2)c1 (as salt: hydrochloride) [Example 2-1, 1-({2-[(3,5-dimethylphenyl)-sulfanyl]-5-nitrophenyl}sulfonyl)piperazine hydrochloride] | 225 to 227 °C |
| Cc1cc(C)cc(Nc2ccc([N+](=O)[O-])cc2S(=O)(=O)N2CCNCC2)c1 (as salt: hydrochloride) [Example 3-1, N-(3,5-dimethyl-phenyl)-4-nitro-2-(1-piperazinylsulfonyl)aniline dihydrochloride] | 175 to 179 °C |
| COc1ccc(Oc2cc(C)cc(C)c2)c(S(=O)(=O)N2CCNCC2)c1 (as salt: hydrochloride) [Example 6-2] | 175 to 177 °C |
| CN(C)C(=O)c1ccc(Oc2cc(Cl)cc(Cl)c2)c(S(=O)(=O)N2CCNCC2)c1 (as salt: hydrochloride) [Example 10-1, 4-(3,5-dichlorophenoxy)-N,N-dimethyl-3-(1-piperazinylsulfonyl)benzamide hydrochloride] | 197 to 199 °C |
| N#Cc1ccc(Sc2cc(Cl)cc(Cl)c2)c(S(=O)(=O)N2CCNCC2)c1 (as salt: hydrochloride) [Example 17-1, 4-[(3,5-dichlorophenyl)sulfanyl]-3-(1-piperazinylsulfonyl)benzonitrile hydrochloride] | 82 °C |
| N#Cc1ccc([S+]([O-])c2cc(Cl)cc(Cl)c2)c(S(=O)(=O)N2CCNCC2)c1 (centres unmarked) (as salt: hydrochloride) [Example 19-1, 4-[(3,5-dichlorophenyl)sulfinyl]-3-(1-piperazinylsulfonyl)benzonitrile hydrochloride] | 219 °C |
| CN(c1cc(Cl)cc(Cl)c1)c1ccc(C#N)cc1S(=O)(=O)N1CCNCC1 (as salt: hydrochloride) [Example 21-1, 4-[(3,5-dichlorophenyl)(methyl)amino]-3-(1-piperazinylsulfonyl)benzonitrile hydrochloride] | 163 °C |

More lines, now with the values ahead:

| melting point | SMILES |
| --- | --- |
| 264 to 266 °C | Cc1cc(C)cc(Oc2ccc([N+](=O)[O-])cc2S(=O)(=O)N2CCNCC2)c1 (as salt: hydrochloride) [Example 1-2, 1-{[2-(3,5-dimethylphenoxy)-5-nitrophenyl]sulfonyl}piperazine hydrochloride] |
| 202 to 204 °C | Cc1cc(C)cc(Oc2ccc(Cl)cc2S(=O)(=O)N2CCNCC2)c1 (as salt: hydrochloride) [Example 5-2, 1-{[5-chloro-2-(3,5-dimethylphenoxy)phenyl]sulfonyl}piperazine hydrochloride] |
| 278 to 280 °C | N#Cc1ccc(Oc2cc(Cl)cc(Cl)c2)c(S(=O)(=O)N2CCCNCC2)c1 (as salt: hydrochloride) [Example 12-1, 3-(1,4-diazepan-1-ylsulfonyl)-4-(3,5-dichlorophenoxy)benzonitrile hydrochloride] |
| 276 °C | N#Cc1ccc(Oc2cc(Cl)cc(Cl)c2)c(S(=O)(=O)N2CC[C@H](N)C2)c1 (as salt: hydrochloride) [Example 13-1, 1-{5-cyano-2-(3,5-dichlorophenoxy)phenylsulfonyl}-(3S)-aminopyrrolidine hydrochloride] |
| 120 °C | COC(=O)c1ccc(Oc2cc(C)cc(C)c2)c(S(=O)(=O)N2CCNCC2)c1 (as salt: hydrochloride) [Example 15-2, methyl 4-(3,5-dimethylphenoxy)-3-(1-piperazinylsulfonyl)benzoate hydrochloride] |
| 160 °C | Cc1cc(C)cc(Oc2ccc(CO)cc2S(=O)(=O)N2CCNCC2)c1 (as salt: hydrochloride) [Example 16-1, [4-(3,5-dimethylphenoxy)-3-(1-piperazinylsulfonyl)phenyl]methanol hydrochloride] |
| 258 °C | N#Cc1ccc(S(=O)(=O)c2cc(Cl)cc(Cl)c2)c(S(=O)(=O)N2CCNCC2)c1 (as salt: hydrochloride) [Example 18-1, 4-[(3,5-dichlorophenyl)sulfonyl]-3-(1-piperazinylsulfonyl)benzonitrile hydrochloride] |
